What follows are compounds tested against T1, Syk (Homo sapiens, UniProt P43405) (assay: Syk enzyme assay (SYK flash plate assay / Caliper mobility shift)).
T1 construct: purchased BPS Bioscience, CA, USA
Assay type: biochemical
Description: The kinase assay is performed either as 384-well Flashplate assay (for e.g. Topcount measurement) or as 384-well Image-Flashplate assay (for LEADseeker measurement).
2.5 nM SYK, 400 nM Biotin-Aha-Aha-KEDPDYEWPSAKK
and 10 μM ATP (spiked with 0.3 μCi 33P-ATP/well) are incubated in a total volume of 50 μl (60 mM Hepes, 10 mM MgCl2, 1.2 mM Dithiothreitol, 0.02% Brij35, 0.1% BSA, pH 7.5) with or without test compound for 1 hours at 30° C. The reaction is stopped with 25 μl 200 mM EDTA. After 30 Min at 30° C. the liquid is removed and each well washed thrice with 100 μl 0.9% sodium chloride solution. Non-specific reaction is determined in presence of 0.1 μM Staurosporine. Radioactivity is measured with Topcount (when using Flashplates) or with LEADseeker (when using Image-Flashplates) respectively. Results (e.g. IC50-values) are calculated with program tools provided by the IT-department (e.g. Symyx Assay Explorer, Genedata Screener). Enzymatic Assays Using the Caliper LifeSciences Technology
The assays described here are performed on the Caliper Life Sciences LC3000 system This technology provides data on enzyme activity via measurement of the relative amounts of phosphorylated or unphosphorylated fluorescently labelled substrate peptide at the end of an enzymatic reaction. These different states of peptide are resolved by applying a potential difference across the sample. The presence of the charged phosphate group on the product (as opposed to the substrate) causes a different peptide mobility between the two peptides. This is visualized by excitation of the fluorescent label on the substrate and product peptides and represented as peaks within the analysis software.
In order to measure inhibitor activity of kinase inhibitors on this technology, a TTP Mosquito liquid handling instrument is used to place 0.25 ul of the appropriate concentration of inhibitor in 100% DMSO (for a dose response curve calculation) into each well of a 384-well plate. To this reaction components are added to a final volume of 25 ul. The table below indicates the sequences and concentrations for the assays described in this report. Standard components are 1 mM DTT (Sigma, D0632), 1 mM MgCl2 (Sigma, M1028), 100 mM HEPES pH 7.5 (Calbiochem, 391338), 0.015% Brij-35 (Sigma, B4184).
The reaction is incubated for 90 min at 25 C, and then stopped by the addition of 70 ul of Stop buffer (100 mM HEPES pH 7.5, 0.015% Brij-35, 10 mM EDTA (Sigma, E7889)).
The plate is read on a Caliper LC 3000 in an Off-Chip mobility shift assay format, on a 12-sipper chip. Unphosphorylated substrate and phosphorylated product peptide resolve as separate peaks allowing direct measurement of percentage of conversion of substrate to product. The percent conversion can be plotted against concentration of inhibitor to produce a sigmoidal dose response curve, from which an IC50 can be calculated using GeneData Condoseo or a similar product.

| IC50 | Compound |
| --- | --- |
| 0.3 to 3 µM | Oc1cccc(-c2cc3nccc(-c4ccccc4)c3o2)c1 [Compound C1] |
| < 0.3 µM | COc1cc(-c2cc3nccc(-c4cccc(C(=O)NCCO)c4)c3o2)cc(OC)c1OC [Compound C5] |
| 0.3 to 3 µM | CC(C)Cn1cc(-c2cc3nccc(-c4cnn(C)c4)c3o2)cn1 [Compound C6] |
| 0.3 to 3 µM | COc1cc(-c2cc3nccc(-c4cccc(C(=O)NCC5CCCN5C(=O)OC(C)(C)C)c4)c3o2)cc(OC)c1OC (stereo not drawn) [Compound C7] |
| < 0.3 µM | CNC(=O)COc1cccc(-c2ccnc3cc(-c4cc(OC)c(OC)c(OC)c4)oc23)c1 [Compound C8] |
| 0.3 to 3 µM | Cc1cc(-c2cc3nccc(-c4cnn(C)c4)c3o2)cc(C(C)(C)C)c1 [Compound C9] |
| < 0.3 µM | COc1cc(-c2cc3nccc(-c4cccc(C(=O)NCc5cc[nH]n5)c4)c3o2)cc(OC)c1OC [Compound C10] |
| < 0.3 µM | COc1cc(-c2cc3nccc(-c4cccnc4)c3o2)cc(OC)c1OC [Compound C13] |
| 0.3 to 3 µM | COc1cc(-c2cc3nccc(-c4ccccc4C(C)C)c3o2)cc(OC)c1OC [Compound C14] |
| 0.3 to 3 µM | COc1cccc(-c2cc3nccc(-c4ccccc4)c3o2)c1 [Compound C15] |
| 0.3 to 3 µM | COc1cc(-c2cc3nccc(-c4cnn(C)c4)c3o2)ccn1 [Compound C16] |
| 3 to 50 µM | Cn1cc(-c2ccnc3cc(-c4cccc(OCc5ccccc5)c4)oc23)cn1 [Compound C20] |
| 0.3 to 3 µM | Cc1noc(C)c1-c1cc2nccc(-c3cnn(C)c3)c2o1 [Compound C22] |
| < 0.3 µM | COc1cc(-c2cc3nccc(-c4cnc(F)cc4C)c3o2)cc(OC)c1OC [Compound C23] |
| 0.3 to 3 µM | c1ccc(-c2ccnc3cc(-c4ccc(N5CCOCC5)nc4)oc23)cc1 [Compound C25] |
| 0.3 to 3 µM | COc1cc(-c2cc3nccc(-c4ccc(OC5CCOCC5)nc4)c3o2)cc(OC)c1OC [Compound C28] |
| 0.3 to 3 µM | Cn1cc(-c2ccnc3cc(-c4ccc(OC(F)(F)F)cc4)oc23)cn1 [Compound C32] |

| IC50 | Compound |
| --- | --- |
| 0.3 to 3 µM | Cn1cc(-c2ccnc3cc(-c4ccc(OCCN5CCCCC5)cc4)oc23)cn1 [Compound C36] |
| 0.3 to 3 µM | Cn1cc(-c2ccnc3cc(-c4ccc(OCC(O)CN5CCCCC5)cc4)oc23)cn1 (stereo not drawn) [Compound C38] |
| 3 to 50 µM | c1cncc(-c2ccnc3cc(-c4ccc(N5CCOCC5)nc4)oc23)c1 [Compound C39] |
| 0.3 to 3 µM | c1ccc(-c2ccnc3cc(-c4ccc(N5CCOCC5)cc4)oc23)cc1 [Compound C50] |
| 0.3 to 3 µM | Cn1cc(-c2ccnc3cc(-c4ccc([S+](C)[O-])cc4)oc23)cn1 (stereo not drawn) [Compound C54] |
| < 0.3 µM | COc1cc(-c2cc3nccc(-c4ccc5[nH]c(=O)[nH]c5c4)c3o2)cc(OC)c1OC [Compound C56] |
| 0.3 to 3 µM | COc1cc(-c2cc3nccc(-c4cnc(N)cc4C)c3o2)cc(OC)c1OC [Compound C75] |
| 0.3 to 3 µM | COc1cc(-c2cc3nccc(-c4csc(N(C)C)n4)c3o2)cc(OC)c1OC [Compound C79] |
| < 0.3 µM | COc1cc(-c2cc3nccc(-c4ccccc4O)c3o2)cc(OC)c1OC [Compound C85] |
| < 0.3 µM | COc1cc(-c2cc3nccc(-c4ccc5[nH]c(-c6cn[nH]c6)nc5c4)c3o2)cc(OC)c1OC [Compound C90] |
| 0.3 to 3 µM | CC(=O)c1ccc(-c2cc3nccc(-c4cnn(C)c4)c3o2)cc1 [Compound C95] |
| 3 to 50 µM | CN1CCN(c2cc(-c3cc4nccc(-c5ccnc(N6CCN(C)CC6)c5)c4o3)ccn2)CC1 [Compound C96] |
| < 0.3 µM | Cn1cc(-c2ccnc3cc(-c4ccc(C(C)(C)O)cc4)oc23)cn1 [Compound C100] |
| 0.3 to 3 µM | COc1cc(-c2cc3nccc(-c4ccc[nH]4)c3o2)cc(OC)c1OC [Compound C105] |
| < 0.3 µM | Cn1cc(-c2ccnc3cc(-c4ccc5cn[nH]c5c4)oc23)cn1 [Compound C133] |
| < 0.3 µM | Cn1ncc2cc(-c3cc4nccc(-c5cccc(C(=O)N[C@@H]6CCCC[C@@H]6N)c5)c4o3)ccc21 [Compound C175] |

Source: patent US9006440B2, “Furopyridine derivatives” (Merck Patent GmbH, priority 2010, dated 2015)
